How the values were obtained:
[1] = Liquid; for mass density: 298.15 K, 101.33 kPa, Vibrating tube method
[2] = refractive index (Na D-line) (dimensionless); conditions: 298.15 K; 101.33 kPa; Liquid; Standard Abbe refractometry

CC(C)CO [2-methyl-1-propanol]
Conditions	mass density [kg/m3]	refractive index
[1]	795.35	–
[2]	–	1.3927

[1], Ebulliometric method (Recirculating still)
Conditions	vapor or sublimation pressure [kPa]
347.84 K	26.2
351.07 K	30.19
359.54 K	43.66
362.99 K	50.45
368.56 K	63.25
372.09 K	72.73
372.56 K	74.66
375.06 K	81.58
378.19 K	91.8
380.73 K	101.32
382.25 K	106.5

CC(C)CCO [3-methylbutan-1-ol]
Conditions	mass density [kg/m3]	refractive index
[1]	806.21	–
[2]	–	1.4035

[1]
Conditions	vapor or sublimation pressure [kPa]
395.68 K	74.7
404.7 K	101.3
404.71 K	101.3

CC(C)O [propan-2-ol]
Conditions	mass density [kg/m3]	refractive index
[1]	779.36	–
[2]	–	1.374

[1], Ebulliometric method (Recirculating still)
Conditions	vapor or sublimation pressure [kPa]
325.2 K	26.21
328 K	30.2
335.73 K	43.66
338.88 K	50.43
343.99 K	63.24
347.25 K	72.74
347.86 K	74.65
349.98 K	81.59
352.84 K	91.8
355.37 K	101.3
356.56 K	106.52
